This note sets out measurements from publication PMC2929374 (Chemmedchem, 2009).

Assay [1] has as its target T1, T. brucei TryR (trypanothione reductase; TyrR) (Trypanosoma brucei, UniProt P39051). Nature of the assay: DTNB-coupled TryR assay, absorbance, 384-well. The assay is classed as biochemical.
In assay [2] the target is T1, T. brucei TryR (trypanothione reductase; TyrR). Put plainly: DTNB-coupled kinetics, global fit. The assay is classed as biochemical.
The mark [3] stands for this setting: read-out: TryR IC50, pH 7.4, 40 mM HEPES, 1 mM EDTA, 6 μM trypanothione, 50 μM DTNB, 150 μM NADPH, room temperature.

Like-named read-outs stand apart in the source and are kept apart here.

T1 sequence (P39051 whole entry): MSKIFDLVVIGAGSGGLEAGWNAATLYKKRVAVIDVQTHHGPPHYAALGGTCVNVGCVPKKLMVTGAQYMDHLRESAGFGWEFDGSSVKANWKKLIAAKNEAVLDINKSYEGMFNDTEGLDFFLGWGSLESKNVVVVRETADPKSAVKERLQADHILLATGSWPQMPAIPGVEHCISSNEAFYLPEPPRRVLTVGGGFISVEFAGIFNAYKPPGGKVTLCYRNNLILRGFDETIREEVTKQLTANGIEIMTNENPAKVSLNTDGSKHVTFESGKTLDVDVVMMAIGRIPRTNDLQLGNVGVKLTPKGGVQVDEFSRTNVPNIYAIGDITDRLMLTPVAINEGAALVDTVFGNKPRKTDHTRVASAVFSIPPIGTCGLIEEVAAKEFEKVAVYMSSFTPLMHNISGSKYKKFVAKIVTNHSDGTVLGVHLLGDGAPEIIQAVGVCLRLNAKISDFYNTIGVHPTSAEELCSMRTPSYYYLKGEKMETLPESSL

As usually defined, the IC50 is the midpoint of a concentration-inhibition curve. `c1ccc2c(C3(N4CCCCC4)CCCCC3)cccc2c1` [compound 6] gave an IC50 in assay [1] of over 100 µM. Take `c1ccc2sc(C3(N4CCCCC4)CCCCC3)cc2c1` [compound 1, 1-(1-(Benzo[b]thiophen-2-yl)cyclohexyl)piperidine]: in assay [1] (setting [3]), the half-inhibitory concentration (IC50) came out at 3.3 µM.

The compound `c1ccc2cc(C3(N4CCCCC4)CCCCC3)ccc2c1` [compound 7] registered an IC50 in assay [1] of 28 µM. Same read-out and setting: in the case of `O=C(c1ccccc1)N1CCC(c2cc3ccccc3s2)(N2CCCCC2)CC1` [compound 30, (4′-(Benzo[b]thiophen-2-yl)-1,4′-bipiperidinyl-1′-yl)(phenyl)methanone] it was 13 µM.

The Ki is the dissociation constant of the complex between target and ligand, obtained from inhibition or displacement. Low readings indicate a stronger hold on the target, high ones a looser hold on the target. `c1ccc2oc(C3(N4CCCCC4)CCCCC3)cc2c1` [compound 5]: the half-maximal inhibitory concentration (IC50) in assay [1] amounted to 4.4 µM. The Ki in assay [2] stood at 1.46 µM. In assay [1], `OC(c1ccccc1)(c1ccccc1)C1(N2CCCCC2)CCCCC1` [compound 25, Diphenyl(1-(piperidin-1-yl)cyclohexyl)methanol] displayed an IC50 of over 100 µM. Still for that read-out and setting: in the case of `CC(C)(C)OC(=O)N1CCC(c2cc3ccccc3s2)(N2CCCCC2)CC1` [compound 27, tert-Butyl 4′-(benzo[b]thiophen-2-yl)-1,4′-bipiperidine-1′-carboxylate] it was over 100 µM; in that of `CN(C)CCN1CCC(c2cc3ccccc3s2)(N2CCCCC2)CC1` [compound 35, 2-(4′-(Benzo[b]thiophen-2-yl)-1,4′-bipiperidinyl-1′-yl)-N,N-dimethylethanamine], over 100 µM. The same measure, in the same setting: in the case of `CC(C)(c1cc2ccccc2s1)N1CCCCC1` [compound 19] it was 15 µM; in that of `c1ccc2sc(C3(N4CCCCC4)CCNCC3)cc2c1` [compound 28, 4′-(Benzo[b]thiophen-2-yl)-[1,4′]bipiperidine], 5.1 µM; in that of `c1ccc2sc(C3(N4CCOCC4)CCCCC3)cc2c1` [compound 15], 11 µM. For the compound `c1csc(C2(N3CCCCC3)CCCCC2)c1` [compound 3], the IC50 in assay [1] (setting [3]) is over 100 µM. In the case of `O=C(c1cc2ccccc2s1)C1(N2CCCCC2)CCCCC1` [compound 24, Benzo[b]thiophen-2-yl(1-(piperidin-1-yl)cyclohexyl)methanone], in assay [1], the half-inhibitory concentration (IC50) was over 100 µM. On the same count and under the same terms, in the case of `CN1CCC(c2cc3ccccc3s2)(N2CCCCC2)CC1` [compound 18] it was 0.93 µM; in that of `Brc1ccc2sc(C3(N4CCCCC4)CCCCC3)cc2c1` [compound 12, 1-(1-(5-Bromo-benzo[b]thiophen-2-yl)cyclohexyl)piperidine], over 100 µM. The same measure, in the same setting: in the case of `CN1CCN(C2(c3cc4ccccc4s3)CCCCC2)CC1` [compound 16] it was 10 µM. As to `c1ccc2sc(C3(N4CCCC4)CCCCC3)cc2c1` [compound 13], the half-inhibitory concentration (IC50) in assay [1] (setting [3]) turned out to be 0.91 µM.

Compound `c1ccc(CN2CCC(c3cc4ccccc4s3)(N3CCCCC3)CC2)cc1` [compound 34, 4′-(Benzo[b]thiophen-2-yl)-1′-benzyl-1,4′-bipiperidine] had an IC50 in assay [1] of 19 µM. Turning to `CCN(CC)C1(c2cc3ccccc3s2)CCCCC1` [compound 14], the IC50 in assay [1] (setting [3]) is 5 µM.

For the compound `c1ccc2sc(C3(N4CCCCC4)CCCCC3)nc2c1` [compound 9], the IC50 in assay [1] is over 100 µM. Same read-out and setting: in the case of `c1ccc2sc(C3(N4CCCCC4)CCCC3)cc2c1` [compound 17] it was 11 µM. Still for that read-out and setting: in the case of `CN(C)CC(=O)N1CCC(c2cc3ccccc3s2)(N2CCCCC2)CC1` [compound 32, 1-(4′-(Benzo[b]thiophen-2-yl)-1,4′-bipiperidinyl-1′-yl)-2-(dimethylamino)ethanone] it was 2.6 µM; in that of `c1ccc(-c2ccc(C3(N4CCCCC4)CCCCC3)cc2)cc1` [compound 4], over 100 µM. The same measure, in the same setting: in the case of `O=C(Cc1ccccc1)N1CCC(c2cc3ccccc3s2)(N2CCCCC2)CC1` [compound 31, 1-(4′-(Benzo[b]thiophen-2-yl)-1,4′-bipiperidinyl-1′-yl)-2-phenylethanone] it was 12 µM.

With `CC(=O)N1CCC(c2cc3ccccc3s2)(N2CCCCC2)CC1` [compound 29], the IC50 in assay [1] amounted to 6.6 µM.

Compound `c1ccc2sc(C3(N4CCCCC4)CCN(CCN4CCOCC4)CC3)cc2c1` [compound 33, 4-(2-(4′-(Benzo[b]thiophen-2-yl)-1,4′-bipiperidin-1′-yl)ethyl)morpholine] yielded an IC50 in assay [1] of 4.4 µM.
